Measured values reported in paper PMC9164233 (ACS Organic & Inorganic Au, 2022).

Tests used:
Assay in all cases: Cell viability assay
[1] = test system: HMLER CD24^high/CD44^low cells; type: cell-based; conditions: Homo sapiens, Epithelial cell, 72 h, read-out: Antiproliferative activity IC50, HMLER CD24^high/CD44^low
[2] = test system: MCF10A cells; type: cell-based; conditions: Homo sapiens, MCF-10A, 72 h, read-out: Antiproliferative activity IC50, MCF10A
[3] = test system: HMLER CD24^low/CD44^high cells; type: cell-based, human; conditions: 72 h

CC[C@@H](C(=O)[C@@H](C)[C@@H](O)[C@H](C)[C@@H]1O[C@@H]([C@@H](CC)C(=O)O)CC[C@@H]1C)[C@H]1O[C@]2(C=C[C@@H](O)[C@]3(CC[C@@](C)([C@H]4CC[C@](O)(CC)[C@H](C)O4)O3)O2)[C@H](C)C[C@@H]1C [Sal, salinomycin]
IC50 [1]: 4.36 ± 0.5 µM
IC50 [2]: 1130 ± 140 nM
SI (HMLER) = IC50(HMLER CD24^high/CD44^low)/IC50(HMLER CD24^low/CD44^high) ([3]; selectivity for the mesenchymal state): 3.1
IC50 ([3]; Homo sapiens, read-out: Antiproliferative activity IC50, HMLER CD24^low/CD44^high): 1390 ± 100 nM
